Experimental data from patent publication US20140329863A1 (priority 2011, published 2014).
Read-outs that look alike come from different tables or passages of the source.

Columns and labels:
[1] = Metabolite identification in human, mouse, rat and dog liver microsomes; assay type: in vitro ADME
Procedure: Samples were injected onto a BetaBasic C18 column and eluted with a gradient elution of mobile phase B (0.1% formic acid in ACN) from 5% to 95% over 30 min. For IND24-containing samples, the transitions monitored were 344→226 (parent); 360→226 and 360→242 (monohydroxylation); and 376→242 and 376→258 (dihydroxylation). […] Plasma and brain homogenate samples from FVB mice in single-dose (10 mg/kg) pharmacokinetic studies were similarly scanned to detect potential hydroxylated metabolites.
Metabolites were separated on a Kinetex 100-Å column (2.6 μm, 100×2.1 mm, Phenomenex, Torrance, Calif.) at ambient temperature. […]
The Orbitrap mass analyzer was calibrated according to the manufacturer's directions using a mixture of caffeine, Met-Arg-Phe-Ala (MRFA) peptide and Ultramark 1621. The parent compounds and their metabolites were detected by full scan mass analysis from m/z 150-1000 at a resolving power of 60,000 [at m/z 400, full width at half maximum (FWHM); 1-s acquisition] with data-dependent MS/MS analyses triggered by the most abundant ion. […] The data obtained was analyzed using Xcalibur v2.1 software (ThermoScientific; Waltham Mass.). Four-decimal monoisotopic masses of the parent compounds and their oxidative metabolites calculated using ChemBioDraw Ultra software version 11.0 (CambridgeSoft; Cambridge, Mass.) were used to interpret further the fragment ions.

[2] = tested on: PrP^Sc in dividing ScN2a-cl3 cells; assay type: cell-based, mouse
[3] = Fraction unbound in cell-culture media; assay type: in vitro ADME; conditions: 1 μM; mean ± SD, n = 3
CYP2C9 = biological target: T1, CYP2C9 (Homo sapiens, UniProt P11712); experiment: CYP phenotyping in human liver microsomes, sulphaphenazol; assay type: in vitro ADME
T1 construct: tissue BD Biosciences; host or cells: pooled human liver microsomes

CYP3A4 = biological target: T2, CYP3A4 (Homo sapiens, UniProt P08684); experiment: CYP phenotyping in human liver microsomes, ketoconazole; assay type: in vitro ADME
T2 construct: tissue BD Biosciences; host or cells: pooled human liver microsomes

CYP2C19 [4] = biological target: CYP2C19 (Homo sapiens, UniProt P33261)
CYP2C19 [5] = conditions: reversible incubation condition, NADPH + N-3-B
[6] = Tolerability / toxicity on repeated dosing in mice; conditions: chronic studies in mice, wide range of doses
[7] = Single-dose pharmacokinetics in FVB mice (oral gavage, IV); conditions: for Kp / Cmax / Tmax / AUC(0-t) / half-life / bioavailability: female, FVB, mouse
[8] = reversible incubation condition, NADPH + Sulphaphenazol
[9] = reversible incubation condition, NADPH + Ketoconazole

T2 sequence (P08684 whole entry): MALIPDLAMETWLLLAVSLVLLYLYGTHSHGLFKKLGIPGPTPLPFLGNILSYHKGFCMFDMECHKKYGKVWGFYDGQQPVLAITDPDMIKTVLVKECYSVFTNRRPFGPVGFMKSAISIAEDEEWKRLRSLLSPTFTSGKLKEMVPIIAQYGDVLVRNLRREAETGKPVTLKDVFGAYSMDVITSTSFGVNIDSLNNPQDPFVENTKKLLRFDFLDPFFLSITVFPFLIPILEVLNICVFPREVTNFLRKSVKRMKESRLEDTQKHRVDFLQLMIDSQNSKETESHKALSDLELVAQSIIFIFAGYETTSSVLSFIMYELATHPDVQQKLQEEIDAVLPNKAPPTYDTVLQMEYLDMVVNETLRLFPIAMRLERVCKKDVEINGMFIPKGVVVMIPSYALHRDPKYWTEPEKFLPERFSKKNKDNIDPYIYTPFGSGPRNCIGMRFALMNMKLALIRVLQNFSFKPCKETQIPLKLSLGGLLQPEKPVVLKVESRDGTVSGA
T1 sequence (P11712 whole entry): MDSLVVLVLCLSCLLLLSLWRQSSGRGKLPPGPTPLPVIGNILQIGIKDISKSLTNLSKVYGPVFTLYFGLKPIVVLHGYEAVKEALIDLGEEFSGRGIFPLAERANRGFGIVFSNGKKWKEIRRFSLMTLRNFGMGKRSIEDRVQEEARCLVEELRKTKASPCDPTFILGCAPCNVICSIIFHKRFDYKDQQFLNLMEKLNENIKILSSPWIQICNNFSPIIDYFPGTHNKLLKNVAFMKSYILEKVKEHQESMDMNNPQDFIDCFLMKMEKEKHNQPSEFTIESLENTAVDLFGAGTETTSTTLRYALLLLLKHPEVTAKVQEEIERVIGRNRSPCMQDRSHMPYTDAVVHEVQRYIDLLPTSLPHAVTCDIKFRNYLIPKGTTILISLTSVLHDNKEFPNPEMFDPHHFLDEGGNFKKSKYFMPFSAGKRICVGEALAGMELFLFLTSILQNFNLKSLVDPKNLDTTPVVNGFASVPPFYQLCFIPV
CYP2C19 (Homo sapiens, UniProt P33261), sequence (P33261 whole entry): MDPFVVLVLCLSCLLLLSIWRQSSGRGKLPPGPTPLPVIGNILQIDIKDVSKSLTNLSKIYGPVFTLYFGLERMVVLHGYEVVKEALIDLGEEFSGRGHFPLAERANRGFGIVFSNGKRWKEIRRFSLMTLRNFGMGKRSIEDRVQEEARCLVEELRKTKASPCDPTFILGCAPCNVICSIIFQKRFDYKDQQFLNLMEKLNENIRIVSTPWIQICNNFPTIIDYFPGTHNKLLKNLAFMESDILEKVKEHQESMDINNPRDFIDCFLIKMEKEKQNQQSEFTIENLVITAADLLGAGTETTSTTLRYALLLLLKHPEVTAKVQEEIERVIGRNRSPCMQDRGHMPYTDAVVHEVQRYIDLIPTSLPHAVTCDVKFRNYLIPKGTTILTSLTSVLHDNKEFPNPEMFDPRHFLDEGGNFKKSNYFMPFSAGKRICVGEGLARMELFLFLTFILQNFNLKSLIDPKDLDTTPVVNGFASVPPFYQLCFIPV

Cc1cccc(Nc2nc(-c3ccc(-c4ccccc4)cc3)cs2)n1 [IND24, (4-Biphenyl-4-yl-thiazol-2-yl)-(6-methyl-pyridin-2-yl)-amine]
major metabolites [1]: ring hydroxylation | EC50 ([2]; AMT analogs tested for potency): 1270 nM | EC50 ([2]; Table 29, 2-AMT analogs tested for potency, usually n = 3 or more): 1270 nM | Unbound (%), Cell-culture Media [3]: 25.7 ± 4.93% | CYP Involvement (CYP2C9; CYP2C9, NADPH + Sulphaphenazol): Unlikely (unlikely for values <5) | % Disappearance (CYP2C9; [8]): 14% | Measured Conc. (CYP2C9; [8]): 0.566 µM | Δ % Disappearance (CYP2C9; [8]): 0 (−14) % | CYP Involvement (CYP3A4; CYP3A4, NADPH + Ketoconazole): Unlikely (unlikely for values <5) | % Disappearance (CYP3A4; [9]): 15% | Measured Conc. (CYP3A4; [9]): 0.557 µM | Δ % Disappearance (CYP3A4; [9]): 0 (−15) % | CYP Involvement (CYP2C19 [4]; CYP2C19, NADPH + N-3-B): Unlikely (unlikely for values <5) | Δ % Disappearance (CYP2C19 [4]; reversible incubation condition, NADPH + N-3-B): 0 (−18) % | % Disappearance (CYP2C19 [5]): 18% | Measured Conc. (CYP2C19 [5]): 0.537 µM | Percentage binding, Rat plasma, 1 μM (Binding in rat plasma; 1 μM): 93.4 ± 2.13% | Percentage binding, Rat plasma, 10 μM (Binding in rat plasma; 10 μM): 94.0 ± 1.04% | Percentage binding, Mouse plasma, 1 μM (Binding in mouse plasma; 1 μM): 93.4 ± 1.55% | Unbound (%), Mouse Plasma (Binding in mouse plasma; 1 μM, mean ± SD, n = 3 (warfarin n = 2)): 6.63 ± 1.55% | Percentage binding, Mouse plasma, 10 μM (Binding in mouse plasma; 10 μM): 95.8 ± 0.14% | tolerability [6]: well tolerated | AUClast ([7]; PO 40 mg/kg, brain, female FVB mice): 9998 ± 417 ng·h/g | Kp ([7]; brain and plasma, po, 10 mg/kg): 2.6 | Cmax ([7]; brain, po, 40 mg/kg): 840 ± 252 ng/g | Tmax ([7]; brain, po, 40 mg/kg): 4 h | Kp ([7]; brain/plasma, po, 40 mg/kg): 2.61 | AUC(0-t) ([7]; plasma, iv, 1 mg/kg): 953 ± 374 ng·h/mL | Cmax ([7]; plasma, iv, 1 mg/kg): 856 ± 908 ng/mL | Tmax ([7]; plasma, iv, 1 mg/kg): 0.083 h | half-life ([7]; plasma, iv, 1 mg/kg, Half-life, 1 mg/kg IV, female FVB mice): 2 h | half-life ([7]; plasma, iv, 1 mg/kg, t1/2, IV 1 mg/kg, female FVB mice): 2.15 h | bioavailability ([7]; plasma, po, 10 mg/kg): 40% | AUC(0-t) ([7]; plasma, po, 40 mg/kg): 3830 ± 450 ng·h/mL | Cmax ([7]; plasma, po, 40 mg/kg): 569 ± 38.1 ng/mL | Tmax ([7]; plasma, po, 40 mg/kg): 2 h | bioavailability ([7]; plasma, po, 40 mg/kg): 40.2% | half-life ([7]; plasma, po, 40 mg/kg, t1/2, PO 40 mg/kg, female FVB mice): 4.65 h | Brain exposure (AUClast) ranking ([7]; single oral dose, FVB mice, brain): highest AUC values in brain
